Series [1] can be described thus: Dissolving capacity (HAP or FAP dissolving and CaF2 dissolving). The format is physicochemical. As to conditions: 1M aqueous solution of the acid containing 23% sodium fluoride, pH 4 with sodium hydroxide; diluted to 30 wt. %, stirred 24 hours with HAP, FAP, CaF2 powder. On the procedure:
Dissolving capacity was measured in the following manner. Described specifically, the preparation is diluted to 30 wt. % with deionized water. The phosphorus and calcium concentrations in the solution were each determined in advance by using a calorimetric reagent and they were subtracted later. To 100 ml of the diluted solution were added hydroxyapatite (HAP), fluorapatite (FAP) and CAF2, each in the powdery form. The resulting mixture was stirred for 24 hours by a magnetic stirrer and the reaction mixture was filtered to remove the solid matter. The phosphorus and calcium concentrations in the solution were determined by a calorimetric reagent.
As the calorimetric reagents for calcium and phosphorus, Calcium Test Wako (for determination of calcium, product of Wako Pure Chemicals) and P Test Wako (for determination of inorganic phosphorus, product of Wako Pure Chemicals) were employed, respectively.

The test system of series [2] is cow tooth (having a mirror polished surface). Nature of the series: Whitening effect on immersed cow tooth, judged from photographs by a panel of 20 experts. As to conditions: 1M aqueous solution of the acid containing 23% sodium fluoride, pH 4; cow tooth immersed 24 hours. The protocol:
Using acids different in pKa, 1M aqueous solutions containing 23% sodium fluoride were prepared, followed by adjustment to pH 4 with sodium hydroxide. After measuring their dissolving capacity, a cow tooth (having a mirror polished surface), which had been photographed in advance, was immersed in each solution for 24 hours. After the treatment, the tooth was taken out from the solution and photographed again. The color of the tooth before immersion was compared with that after immersion. The comparison was made as follows: A panel of 20 experts was asked to see the photographs of the tooth before and after treatment and to evaluate it as ◯ when the teeth was whitened after the treatment, while as × when no change in color was recognized. Upon evaluation, the tooth which was whitened but lost its gloss was evaluated as ×. The preparation evaluated as ◯ by at least a half of the experts was judged effective and the others were judged ineffective.
Toothpastes as shown in Table 3 were prepared in a conventional manner. Dissolving capacity of each of their 30% aqueous solutions was measured as in Example 1. Their whitening effect was measured also as in Example 1 (by immersing in the toothpaste for 24 hours).

For series [3] the following is noted: 25° C.; acid added; cited from earlier work.

Dissolving capacity, Whitening effect and pKa data for eight molecules are collected here from patent US20030124068A1, “Oral preparation” (priority 2000, published 2003).

Usually pKa stands for the pH at which an ionisable group is half protonated.

Take `CC(=O)O` [Acetic acid]: the Dissolving capacity entry in series [1] was “∘”. The Whitening effect result in series [2] is recorded as “∘”. In the case of `O=C(O)CC(O)(CC(=O)O)C(=O)O` [Citric acid], the Dissolving capacity result in series [1] is listed as “∘”. Moreover, the Whitening effect result in series [2] is reported as “∘”. Further, the pKa in series [3] is on record as 2.9. With `Cl` [Hydrochloric acid, reference compound], in series [1], the Dissolving capacity entry was “∘”. `CC(O)C(=O)O` (centres unmarked) [Lactic acid]: the Dissolving capacity entry in series [1] is “∘”. Besides, in series [2], the Whitening effect result is given as “∘”.

On to `O=C(O)CC(O)C(=O)O` (centres unmarked) [Malic acid], for which the Dissolving capacity entry in series [1] was “∘”. For the same molecule, in series [2], the Whitening effect result is recorded as “∘”. With `O=P(O)(O)O` [Phosphoric acid, reference compound], the Dissolving capacity result in series [1] is given as “∘”. On to `O=S(=O)(O)O` [Sulfuric acid, reference compound], for which the Dissolving capacity result in series [1] is listed as “∘”.

In the case of `O=C(O)C(O)C(O)C(=O)O` (centres unmarked) [Tartaric acid], the Whitening effect entry in series [2] is listed as “∘”. For the same molecule, in series [3], the pKa is recorded as 2.99.
